Results as given in patent US20250288587A1, “Methods of Treating Fibrosis” (Athira Pharma, Inc., priority 2022, published 2025).
Where a SMILES comes first, the peptide text is derived from it. [ ]: non-standard residue; d: D form. The star is where a group is joined. Hexanoyl = CCCCCC(=O)*; Ahx = NCCCCCC(=O)O

Assays:
[1] = system: THP-1-differentiated macrophages; test: Pro-inflammatory cytokine expression in LPS-challenged THP-1-differentiated macrophages; assay type: cell-based, human; parameters: key to IL-6, significant reduction in culture supernatant vs LPS treatment / TNF-α, significant reduction in culture supernatant vs LPS treatment / IL-1β, significant reduction in culture supernatant vs LPS treatment: “NS” indicates a non-significant reduction in the indicated cytokine; “+” indicates a p value <0.05 in Tukey post test; “++” indicates a p value <0.01 in Tukey post test; conditions: for IL-1β, significant reduction in culture supernatant vs LPS treatment / IL-6, significant reduction in culture supernatant vs LPS treatment / TNF-α, significant reduction in culture supernatant vs LPS treatment: 20 min pre-treatment, 24 hrs LPS
Method: Differentiation with PMA causes THP-1 monocyte cells to acquire functional and morphological resemblance to macrophages. LPS interacts with THP-1 differentiated macrophage through the toll-like receptor 4, triggering the inflammatory response and stimulating pro-inflammatory cytokine release and eventually leading to cellular death. Compounds were tested to determine their anti-inflammatory effects on LPS-challenged macrophage cultures. THP-1-differentiated macrophages were treated with test compounds for 20 minutes, followed by 24 hrs of LPS challenge. Culture supernatants were then collected to analyzed for the presence of pro-inflammatory cytokines: […], interleukin 6 (IL-6) and tumor necrosis factor α (TNF-α).
Cytokine quantification in cell culture supernatants was accomplished by HTRF kits to assess levels of IL-1β (Human IL-1β kit, #62HIL1BPEG, Cisbio) and IL-6 (Human IL-6 kit, 62HIL06PET, Cisbio), and by ELISA to determine the levels of TNF-α (Human TNF-α ELISA kit, KHC3011, ThermoFisher).
Data analysis was performed via 1-way ANOVA with Tukey post-test compared to LPS treatment cultures using Prism statistical software (GraphPad). Tabular data indicates significance of reduction in culture supernatants for the indicated analyte at the indicated doses.

[2] = system: MRC-5 cells; test: TGFβ-stimulated αSMA expression in MRC-5 cells (HTRF); assay type: cell-based; parameters: key to Significant reduction in αSMA via HTRF compared to TGFβ alone: NS = no statistically significant change in aSMA expression; + = p < 0.05; ++ = p < 0.01; +++ = p < 0.005; ++++ = p < 0.001; conditions: for Significant reduction in αSMA via HTRF compared to TGFβ alone: TGFβ 1 ng/ml, 48 h
Method: In this study, pulmonary-derived immortalized fibroblasts, MRC-5 cells, were cultured as a model of the early transition to fibrosis, and αSMA expression was measured using an immunodetection system driven by homogenous time-resolved fluorescence (HTRF) technology. This detection system produces a fluorescent signal in the presence of αSMA in cell lysates. Cells were grown to confluence in 96-well culture plates in complete media, and then transitioned to serum-free media for 2 hours. Next TGFβ (final 1 ng/ml in serum-free media) was added to the cells to stimulate the fibrotic transition. After 2 hours, media containing either HGF or HGF combined with one of the compounds was added to the cells. After incubation for 48 hours, cells were lysed and processed for αSMA HTRF to detect the levels of αSMA expression and compared to TGFβ-stimulated cultures. Statistical analysis consisted of 1-way ANOVA with a Dunnett's multiple comparison's post-test.

[3] = system: pulmonary LPS-stimulated rats; test: Cytokine expression in BALF supernatant (multiplex immunoassay), LPS-induced acute pulmonary inflammation; assay type: in vivo; conditions: 3 mg/kg IP 1 h before LPS
[4] = system: pulmonary LPS-stimulated rats; test: Immune cell infiltration in BALF, LPS-induced acute pulmonary inflammation; assay type: in vivo; conditions: 3 mg/kg IP 1 h before LPS; BALF 4 h post LPS
[5] = system: C57BL/6 mice, bleomycin-induced pulmonary fibrosis; test: Bleomycin-induced pulmonary fibrosis in mice; assay type: in vivo; parameters: key to Collagen, improvement in BLM-induced alterations versus disease control / Alpha-Smooth Muscle Actin, improvement in BLM-induced alterations versus disease control / Body Weight, improvement in BLM-induced alterations versus disease control / Right Lung Weight, improvement in BLM-induced alterations versus disease control / Hydroxyproline, improvement in BLM-induced alterations versus disease control: + = >5-25% improvement vs disease control; ++ = >26-50% improvement vs disease control; +++ = >51-100% improvement v disease control; NS means not significant
Method: Lung fibrosis in C57BL/6 mice is induced by a single […] injection of the chemotherapy drug bleomycin. Mice are treated with vehicle or test compound. At termination (study day 28), one lung is weighed, with increased weight indicating more advanced fibrosis. Lung tissue is also homogenized for hydroxyproline, collagen, and TGF-β quantification. Lung tissue is also formalin-fixed and further processed for H&E, collagen morphometry, Ashcroft's score, and both α-SMA and TUNEL expression analyses. Plasma is analyzed by multiplex bead array for MMP-2, MMP-9, IL-1β, IL-6, IL-12, and TNF-α expression.
The experimental design described in Example B1 with the following changes was used to assess the ability of Compound 1a to reduce pulmonary fibrosis. Briefly, Male C57BL/6 mice (Envigo) […] were used. The mice were 3.5-4 months old and ˜24-30 g by weight. On day −1 animals were randomized based on body weight and the animals were assigned with a permanent number by ear notching. Cages were identified by cage cards indicating the study code, group number, sex, dose, cage number, number of animals and animal number details.
On day 0, all animals (except the sham control animals) were administered bleomycin (0.03 U in 50 μl normal saline) intratracheally (i.t.) under Ketamine+Xylazine anesthesia. The sham control animals were dosed with 50 μl of normal saline intratracheally. Pirfenidone was used as a positive control; this compound is known to downregulate growth factors and procollagens to reduce fibrosis and is an approved drug for the treatment of idiopathic pulmonary fibrosis.
Vehicle, pirfenidone and test Compound 1a dosing was initiated from day 3 to day 21 as described in the following Table 2. On day 21 whole blood was collected 1-hour post-dose into EDTA and then processed to plasma. Right lungs were then collected, weighed, snap frozen and later homogenized for biochemical analysis. Hydroxyproline, collagen and TGF-Beta levels were measured in the right lung homogenates.

[6] = system: BALB/c mice, CCl4 mouse model of liver fibrosis; test: CCl4-induced liver fibrosis, plasma AST; assay type: in vivo
Method: Liver fibrosis in BALB/c mice was induced by biweekly intraperitoneal injections of carbon tetrachloride (CCl4) from study day 0 to 43. Mice were treated with vehicle, Compound 1a, or positive control, SB535334, beginning at study day 21. At termination (study day 43), plasma was tested for liver function via levels of aspartate aminotransferase (AST).
AST can be used as a marker of liver damage, because increased levels are released in the blood stream in chronic liver disease.

[7] = dose 100 mg/kg PO twice daily, right lung homogenate, day 21

CCCCCC(=O)N[C@@H](Cc1ccc(O)cc1)C(=O)N[C@H](C(=O)NCCCCCC(N)=O)[C@@H](C)CC [Compound A19-AM, Dihexa] (Hexanoyl-Tyr-Ile-[Ahx]-NH2)
IL-1β, significant reduction in culture supernatant vs LPS treatment ([1]; 0.1 nM): NS | IL-6, significant reduction in culture supernatant vs LPS treatment ([1]; 0.1 nM): NS | TNF-α, significant reduction in culture supernatant vs LPS treatment ([1]; 0.1 nM): NS | IL-1β, significant reduction in culture supernatant vs LPS treatment ([1]; 10 nM): ++ (“++” indicates a p value <0.01 in Tukey post test) | IL-6, significant reduction in culture supernatant vs LPS treatment ([1]; 10 nM): + (“+” indicates a p value <0.05 in Tukey post test) | TNF-α, significant reduction in culture supernatant vs LPS treatment ([1]; 10 nM): + (“+” indicates a p value <0.05 in Tukey post test) | IL-1β, significant reduction in culture supernatant vs LPS treatment ([1]; 1000 nM): + (“+” indicates a p value <0.05 in Tukey post test) | IL-6, significant reduction in culture supernatant vs LPS treatment ([1]; 1000 nM): ++ (“++” indicates a p value <0.01 in Tukey post test) | TNF-α, significant reduction in culture supernatant vs LPS treatment ([1]; 1000 nM): + (“+” indicates a p value <0.05 in Tukey post test) | expression of IL-1β and TNF-α ([1]; at at least one tested dose): significantly reduced | expression of IL-6 ([1]; at at least one tested dose): significantly reduced | αSMA expression ([2]; 1 uM, combined with 0.01 ng/ml HGF): significantly reduced αSMA | Significant reduction in αSMA via HTRF compared to TGFβ alone ([2]; test compound 1 nM, HGF 0.01 ng/ml): NS | Significant reduction in αSMA via HTRF compared to TGFβ alone ([2]; test compound 1 μM, HGF 0.01 ng/ml): ++++ (++++ = p < 0.001)

C[C@@H]1C[C@H]2[C@@H]3CCC4=CC(=O)C=C[C@]4(C)[C@@]3(F)[C@@H](O)C[C@]2(C)[C@@]1(O)C(=O)CO [Dex, Dexamethasone, reference compound]
CCL2, significant change in cytokine expression in BALF supernatant [3]: + (+ = Significant change in cytokine quantification, p < 0.05 by Student's T-test) | CCL3, significant change in cytokine expression in BALF supernatant [3]: + (+ = Significant change in cytokine quantification, p < 0.05 by Student's T-test) | CCL5, significant change in cytokine expression in BALF supernatant [3]: + (+ = Significant change in cytokine quantification, p < 0.05 by Student's T-test) | CCL11, significant change in cytokine expression in BALF supernatant [3]: + (+ = Significant change in cytokine quantification, p < 0.05 by Student's T-test) | CX3CL1, significant change in cytokine expression in BALF supernatant [3]: + (+ = Significant change in cytokine quantification, p < 0.05 by Student's T-test) | CXCL1, significant change in cytokine expression in BALF supernatant [3]: + (+ = Significant change in cytokine quantification, p < 0.05 by Student's T-test) | CXCL5, significant change in cytokine expression in BALF supernatant [3]: + (+ = Significant change in cytokine quantification, p < 0.05 by Student's T-test) | CXCL10, significant change in cytokine expression in BALF supernatant [3]: + (+ = Significant change in cytokine quantification, p < 0.05 by Student's T-test) | EGF, significant change in cytokine expression in BALF supernatant [3]: + (+ = Significant change in cytokine quantification, p < 0.05 by Student's T-test) | IFN-γ, significant change in cytokine expression in BALF supernatant [3]: + (+ = Significant change in cytokine quantification, p < 0.05 by Student's T-test) | IL-1α, significant change in cytokine expression in BALF supernatant [3]: + (+ = Significant change in cytokine quantification, p < 0.05 by Student's T-test) | IL-1β, significant change in cytokine expression in BALF supernatant [3]: + (+ = Significant change in cytokine quantification, p < 0.05 by Student's T-test) | IL-5, significant change in cytokine expression in BALF supernatant [3]: + (+ = Significant change in cytokine quantification, p < 0.05 by Student's T-test) | IL-6, significant change in cytokine expression in BALF supernatant [3]: + (+ = Significant change in cytokine quantification, p < 0.05 by Student's T-test) | IL-10, significant change in cytokine expression in BALF supernatant [3]: + (+ = Significant change in cytokine quantification, p < 0.05 by Student's T-test) | IL-12p70, significant change in cytokine expression in BALF supernatant [3]: + (+ = Significant change in cytokine quantification, p < 0.05 by Student's T-test) | IL-13, significant change in cytokine expression in BALF supernatant [3]: + (+ = Significant change in cytokine quantification, p < 0.05 by Student's T-test) | IL-17A, significant change in cytokine expression in BALF supernatant [3]: + (+ = Significant change in cytokine quantification, p < 0.05 by Student's T-test) | TNF-α, significant change in cytokine expression in BALF supernatant [3]: + (+ = Significant change in cytokine quantification, p < 0.05 by Student's T-test) | Neutrophils in BALF, reduction in cell count vs disease control [4]: +++ (+++ = >75% reduction in cell count vs disease control) | Total Leukocytes in BALF, reduction in cell count vs disease control [4]: +++ (+++ = >75% reduction in cell count vs disease control)

Cc1ccc(=O)n(-c2ccccc2)c1 [Pirfenidone, reference compound]
bleomycin-induced increases in TGF-β in right lung homogenates ([5]; all doses, day 21): significantly protected against bleomycin-induced increases in TGF-β | protection against bleomycin-induced body weight loss ([5]; all treatment groups, over the study period): did not protect against body weight loss | Body Weight, improvement in BLM-induced alterations versus disease control ([5]; dose 100 mg/kg PO twice daily, days 3-21): NS | Right Lung Weight, improvement in BLM-induced alterations versus disease control ([5]; dose 100 mg/kg PO twice daily, days 3-21, day 21): + (+ = >5-25% improvement vs disease control) | Alpha-Smooth Muscle Actin, improvement in BLM-induced alterations versus disease control ([5]; dose 100 mg/kg PO twice daily, day 21): + (+ = >5-25% improvement vs disease control) | Collagen, improvement in BLM-induced alterations versus disease control [5, 7]: ++ (++ = >26-50% improvement vs disease control) | Hydroxyproline, improvement in BLM-induced alterations versus disease control [5, 7]: NS | TGF-Beta, improvement in BLM-induced alterations versus disease control [5, 7]: +++ (+++ = >51-100% improvement v disease control) | alpha-smooth muscle actin morphometory ([5]; other doses of Compound 1a, pirfenidone doses, day 21): insignificant decreases

Cc1cccc(-c2[nH]c(C(C)(C)C)nc2-c2ccc3nccnc3c2)n1 [SB525334, reference compound]
AST in plasma, improvement compared to disease control ([6]; Dose 30, from study day 21, termination day 43): − (− = change of <5% compared to disease control) | AST levels in plasma compared to CCl4-treated mice receiving vehicle ([6]; positive control): significant increases

HGF: Hepatocyte growth factor protein, added alone or with test compounds
Significant reduction in αSMA via HTRF compared to TGFβ alone ([2]; HGF 0.01 ng/ml alone): NS | Significant reduction in αSMA via HTRF compared to TGFβ alone ([2]; HGF 1 ng/ml alone): NS | Significant reduction in αSMA via HTRF compared to TGFβ alone ([2]; HGF 10 ng/ml alone): +++ (+++ = p < 0.005) | αSMA expression, HGF alone ([2]; TGFβ-stimulated MRC-5 cells): significantly reduce αSMA expression at high (10 ng/ml) but not low (0.01 or 1 ng/ml) concentrations
